Assay results as given in patent publication US9290440B2, “Bicyclic compound” (TOA EIYO LTD., priority 2012, dated 2016).
Like-named read-outs stand apart in the source and are kept apart here.

Molecular target: T1, human sGC α subunit and β subunit (Homo sapiens, UniProt Q02153)
T1 construct: expressed in transfected cells
T1 sequence (Q02153 1-619): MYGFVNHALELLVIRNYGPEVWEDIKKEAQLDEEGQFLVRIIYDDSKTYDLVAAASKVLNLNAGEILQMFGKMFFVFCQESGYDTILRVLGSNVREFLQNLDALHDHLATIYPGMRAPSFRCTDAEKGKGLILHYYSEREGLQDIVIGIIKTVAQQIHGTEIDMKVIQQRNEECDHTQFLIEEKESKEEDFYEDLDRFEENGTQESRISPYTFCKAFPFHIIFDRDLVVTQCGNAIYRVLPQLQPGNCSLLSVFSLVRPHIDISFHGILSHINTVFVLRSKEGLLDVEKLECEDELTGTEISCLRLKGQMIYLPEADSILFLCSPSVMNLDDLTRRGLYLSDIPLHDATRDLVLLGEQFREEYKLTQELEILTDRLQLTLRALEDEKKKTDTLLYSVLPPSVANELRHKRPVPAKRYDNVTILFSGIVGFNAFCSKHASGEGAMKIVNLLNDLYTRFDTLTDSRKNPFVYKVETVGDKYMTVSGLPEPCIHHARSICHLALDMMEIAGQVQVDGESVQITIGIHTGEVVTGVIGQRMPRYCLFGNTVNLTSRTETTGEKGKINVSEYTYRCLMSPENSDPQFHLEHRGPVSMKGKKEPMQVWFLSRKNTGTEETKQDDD
T1 sequence (Q02108 1-690 partner): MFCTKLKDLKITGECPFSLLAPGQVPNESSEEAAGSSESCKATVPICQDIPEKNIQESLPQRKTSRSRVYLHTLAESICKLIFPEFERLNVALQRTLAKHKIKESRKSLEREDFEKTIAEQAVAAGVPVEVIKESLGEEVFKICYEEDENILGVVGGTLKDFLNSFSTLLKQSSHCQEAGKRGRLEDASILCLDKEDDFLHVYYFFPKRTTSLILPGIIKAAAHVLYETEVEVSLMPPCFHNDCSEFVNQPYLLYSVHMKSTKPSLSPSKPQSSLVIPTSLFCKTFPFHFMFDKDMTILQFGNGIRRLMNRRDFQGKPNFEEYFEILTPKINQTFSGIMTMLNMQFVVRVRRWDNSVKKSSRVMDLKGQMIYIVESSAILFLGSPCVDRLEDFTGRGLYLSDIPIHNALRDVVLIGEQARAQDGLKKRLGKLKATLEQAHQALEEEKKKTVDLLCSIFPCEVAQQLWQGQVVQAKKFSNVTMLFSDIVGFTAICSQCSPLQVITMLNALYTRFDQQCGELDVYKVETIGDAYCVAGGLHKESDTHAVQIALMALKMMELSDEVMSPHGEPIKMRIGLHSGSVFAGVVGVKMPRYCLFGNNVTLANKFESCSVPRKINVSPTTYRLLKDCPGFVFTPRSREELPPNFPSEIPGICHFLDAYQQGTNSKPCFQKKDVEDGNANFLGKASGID
Experiment: Maximum effect of sGC activating function (Ca2+ fluorescence in CHO-K1 cells expressing human sGC and mouse CNGA2)
Assay type: cell-based
Details: increase ratio of sGC activity vs control solution at 10 μmol/L test compound
Procedure, shortened: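 CHO-K1 cells stably expressing human sGC α/β and mouse CNGA2 were FURA2-AM loaded and then treated with compound at 10 μmol/L for 10 min at RT, in buffer containing 100 μmol/L IBMX, with or without 10 μmol/L ODQ. Ca²⁺ was read as the 340/380 nm excitation ratio. Activity is the % increase over the DMSO control.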

[1] = ODQ not contained, read-out: Emax (%) ODQ− (Heme-dependent)
[2] = with 10 μmol/L ODQ, read-out: Emax (%) ODQ+ (Heme-independent)

Emax at 10 µM [1] [%]	Emax at 10 µM [2] [%]	Structure (SMILES)
53	86	O=C(O)CCCCN(CCc1ccccc1OCc1ccc(CCc2ccccc2)cc1)Cc1ccc(C(=O)O)cc1 [Cinaciguat, reference compound]
101	99.9	O=C(O)CCCCN(CCc1ccccc1OCc1ccc(SCc2ccccc2)cc1)C1CCCc2cc(C(=O)O)ccc21 (stereo not drawn) [Example 15, 5-{N-[2-[2-(4-Benzylsulfanylbenzyloxyl)phenyl]ethyl]-N-(4-carboxybutyl)amino}-5,6,7,8-tetrahydronaphthalene-2-carboxylic acid]
141	133	O=C(O)CCCCN(CCc1ccccc1OCc1cccc2c1CCCC2)C1CCCc2cc(C(=O)O)ccc21 (stereo not drawn) [Example 29, 5-{N-(4-Carboxybutyl)-N-[2-[2-(5,6,7,8-tetrahydronaphthalene-1-ylmethoxy)phenyl]ethyl]amino}-5,6,7,8-tetrahydronaphthalene-2-carboxylic acid]
